Data as given in PubChem BioAssay AID2384 (Southern Research Specialized Biocontainment Screening …, 2010).

tested on: S. typhi GFP reporter counter-screen, fluorescence, 4 h; assay: inhibitors in S. typhi counter-screen strain, dose response, counter-screen for PhoP regulon inhibitor project, fluorescence, 4 h (AID 2384)

| SMILES | IC50 |
| --- | --- |
| CCOC(=O)N1CCN(Cc2cc(Cl)c3cccnc3c2O)CC1 | 47.4 µM |
| CCCCCCCCCCCCCCCC[N+](C)(C)CC | 19.3 µM |
| NC1=NC[C@H](CC2CCCCC2)N1CCc1cc(C(F)(F)F)cc(C(F)(F)F)c1 | 35.2 µM |
| CN(Cc1ccccc1O)CC1CCCN(CCc2ccc(Cl)cc2)C1 (stereo unspecified) | 16.9 µM |
| CCCCCOc1ccc(CSC(=N)N)cc1[N+](=O)[O-] | 30.4 µM |
| NC(N)=N/N=C/c1ccc(OCc2ccc(Cl)cc2)cc1 | 26.7 µM |
| CCOC(=O)Cn1c(=N)n(CCOc2ccc3ccccc3c2)c2ccccc21 | 37.2 µM |
| CN(C)CC/C=C1\c2ccccc2Sc2ccc(Cl)cc21 | 60 µM |
| NC(N)=N/N=C/c1ccc(OCc2ccccc2Cl)cc1 | 39.5 µM |
| CSc1ccc2c(c1)C(N1CCN(C)CC1)Cc1ccccc1S2 (stereo unspecified) | 27.5 µM |
| O=C(Nc1ccc([N+](=O)[O-])cc1Cl)c1cc(Cl)ccc1O | 19.7 µM |
| Oc1ccc(C[C@H]2CNCCN2CCCCC2CCCCC2)cc1 | 70.5 µM |
| O=[N+]([O-])c1cccc(NNS(=O)(=O)c2ccccc2F)c1 | 18.5 µM |
| C=CC1=C(C(=O)O)N2C(=O)[C@@H](NC(=O)/C(=N\O)c3csc(N)n3)[C@H]2SC1 (stereo in doubt) | 15.4 µM |
| COc1ccccc1Nc1nc(NCc2ccco2)c2ccccc2n1 | 56.3 µM |
| Cc1[nH]c2ccc(C(=O)Nc3ccncc3)cc2c1C | 90.8 µM |
| C#CCOCCOCCOCCNc1nc(N2CCN(C(=O)[C@H](Cc3ccc(O)cc3)n3cc([C@@H](N)CC(C)C)nn3)CC2)nc(N2CCN(C(=O)[C@H](Cc3cc4ccccc4[nH]3)n3cc([C@@H](N)CC(C)C)nn3)CC2)n1 | 41.8 µM |
| Nc1nnc(-c2cccc(Cl)c2Cl)c(N)n1 | 25.8 µM |
| CN1C(=O)NC(c2cccc(O)c2)C(C(=O)c2cccs2)C1(O)C(F)(F)F (stereo unspecified) | 24.6 µM |

| SMILES | IC50 |
| --- | --- |
| CCCCCCCCCCCCCCCC[n+]1ccc(C(N)=O)cc1 | 9.85 µM |
| C#CCOCCOCCOCCNc1nc(N2CCN(C(=O)C(Cc3ccc(O)cc3)n3cc(C(N)CC(C)C)nn3)CC2)nc(N2CCN(C(=O)C(Cc3cc4ccccc4[nH]3)n3cc(C(N)Cc4ccc(O)cc4)nn3)CC2)n1 (stereo unspecified) | 37.7 µM |
| COc1ccc(Nc2cc(C)nc(NCc3ccccc3)n2)cc1 | 38.5 µM |
| CN1CCc2nc(SCC(=O)Nc3ccc(Cl)cc3)c(C#N)cc2C1 | 93.5 µM |
| CCCC(=O)NC(c1ccco1)c1cc([N+](=O)[O-])c2cccnc2c1O (stereo unspecified) | 25.4 µM |
| CCn1cc(C(=O)O)c(=O)c2cnc(N3CCNCC3)nc21 | 50.1 µM |
| Cc1ccc(C(=O)N/N=C\c2sccc2C)cn1 | 136 µM |
| O=C(N/N=C\c1ccc(Cl)s1)c1cccs1 | 90.8 µM |
| Cc1cc(O)c2c(c1)C(=O)C13C(=C2O)C(=O)[C@H]2[C@@H](O)[C@@H]1[C@H]1[C@H](O)[C@@H]3C(=O)C3=C(O)c4c(O)cc(C)cc4C(=O)C312 (stereo partly specified) | 7.46 µM |
| N/C(=N\N=C/c1ccc(F)cc1)N/N=C\c1ccc(F)cc1 | 38.6 µM |
| CCCCCCCCCC[N+](C)(C)CC/C=C1/c2ccccc2Sc2ccc(Cl)cc21 | 14 µM |
| COc1c(N2CCN(C(=S)Nc3ccc(F)cc3)C(C)C2)c(F)cc2c(=O)c(C(=O)O)cn(C3CC3)c12 (stereo unspecified) | 18.3 µM |
| CCn1nc(C(=O)O)c(=O)c2cc3c(cc21)OCO3 | 84.1 µM |
| CS(=O)(=O)c1ccc2nc(NC(=O)c3ccc(Cl)nc3)sc2c1 | 27.8 µM |
| O=c1c(O)cccc2cc(O)c(O)c(O)c12 | 18.5 µM |
| Cc1occc1C(=O)N/N=C/c1cccs1 | 54.9 µM |
| CCCCCSc1cc(OC)c(CCNC)cc1OC | 52.2 µM |
| O/N=C/c1ccc(OCc2ccccc2)c(Cl)c1 | 103 µM |
| O=[N+]([O-])c1cc(Cl)cc(/C=N/NC(=S)Nc2ccc(S(=O)(=O)N3CCOCC3)cc2)c1O | 51 µM |

| SMILES | IC50 |
| --- | --- |
| CCCCNCCCOc1cccc(Cl)c1Cl | 58.5 µM |
| Nc1ncn([C@@H]2O[C@H](CO)[C@@H](O)[C@H]2O)c(=O)n1 | 46.2 µM |
| CC[C@@H](C)[C@H](CN[C@H](CNC)C(C)C)NC[C@@H](C)c1ccc(CC(C)C)cc1 | 26.2 µM |
| Cc1cc(N2CCC(C)CC2)nc2cccc(O)c12 | 80.2 µM |
| CCCCn1c(NS(=O)(=O)c2ccc(C)cc2)c(S(=O)(=O)c2ccccc2)c2nc3ccccc3nc21 | 9.71 µM |
| CC1CCN(CCCCOc2ccc(Cl)cc2)CC1 | 136 µM |
| CCC(=O)c1ccc(OCC(O)CNCCc2ccc(Cl)cc2)cc1 (stereo unspecified) | 147 µM |
| CCCOc1ccc(S(=O)(=O)n2cc(F)c(=O)[nH]c2=O)cc1 | 139 µM |
| Cc1cc(C)c(OCCCCNCc2ccccc2)c(Cl)c1 | 61.3 µM |
| CN1CCN(C(c2ccc(Br)cc2)c2cc(Cl)c3cccnc3c2O)CC1 (stereo unspecified) | 35.4 µM |
| CC1(C)N=C(N)NC(Nc2ccc(Br)cc2)=N1 | 109 µM |
| Cc1nc(N)nc(N)c1CCCc1ccc(Cl)c(Cl)c1 | 31.5 µM |
| Cc1cc([N+](=O)[O-])cc(/C=N\NC(=O)C2COc3ccccc3O2)c1O (stereo unspecified) | 30.3 µM |
| Cc1cc(C)n2nc(S(=O)(=O)Nc3c(Cl)cccc3Cl)nc2n1 | 49.7 µM |
| Cc1cccc(Nc2c3c(nc4ccccc24)CCC3)c1 | 60.3 µM |
| CCCOc1ccc(C2=CSC3=NCCN23)cc1Cl | 75.1 µM |
| Cc1ccc(S(=O)(=O)NNc2ccccc2)cc1 | 89.5 µM |
| CCCCCCCNC(=O)C1(CC2CC(c3cccc(Br)c3)=NO2)CCNCC1 (stereo unspecified) | 39.8 µM |
